Data published in ChEMBL document CHEMBL1146606, “CoMFA and homology-based models of the glycine binding site of N-methyl-d-aspartate receptor” (J Med Chem, 2003).

Experiments:
[1] = molecular target: Glutamate [NMDA] receptor; experiment: Inhibition of [3H]DCKA binding to N-methyl-D-aspartate glutamate receptor; format: protein-complex assay
[2] = molecular target: Glutamate [NMDA] receptor; experiment: Compound was tested for inhibition of [3H]DCKA binding to N-methyl-D-aspartate glutamate receptor; format: protein-complex assay; parameters: unit not given here

Row | SMILES | IC50 [1] [nM] | Log 1/IC50 [2]
1 | O=c1[nH]c2cc3c(c([N+](=O)[O-])c2[nH]c1=O)CCC3 | 3100 | -0.49
2 | O=[N+]([O-])c1c(O)nc2cccc(Cl)c2c1O | 61000 | -1.78
3 | O=c1[nH]c2cc(Cl)c(Cl)c([N+](=O)[O-])c2[nH]c1=O [LICOSTINEL] | 5.9 | 2.23
4 | O=[N+]([O-])c1c(O)nc2cc(Cl)c(Cl)cc2c1O | 400 | 0.4
5 | Oc1nc2cc(Cl)cnc2c(O)c1-c1ccsc1 | 4300 | -0.63
6 | Oc1nc2ncccc2c(O)c1-c1ccccc1 | > 100000 | -2
7 | O=Nc1c(O)nc2cccc(Cl)c2c1O | 4400 | -0.64
8 | O=[N+]([O-])c1c(O)nc2ccc(Cl)cc2c1O | > 100000 | -2
9 | O=Nc1c(O)nc2cc(Cl)c(Cl)c(Cl)c2c1O | 7 | 2.15
10 | O=[N+]([O-])c1c(O)nc2cc(Cl)cc(Cl)c2c1O | 220 | 0.66
11 | O=[N+]([O-])c1c(O)nc2cc(Cl)ccc2c1O | 1500 | -0.18
12 | Oc1nc2cccnc2c(O)c1-c1ccccc1 | > 100000 | -2
13 | O=Nc1c(O)nc2ccc(Cl)c(Cl)c2c1O | 170 | 0.77
14 | O=[N+]([O-])c1c(O)nc2c(F)c(Cl)c(F)cc2c1O | 40000 | -1.6
15 | Oc1nc2ncc(Cl)cc2c(O)c1-c1cccc(Oc2ccccc2)c1 | 19000 | -1.28
16 | O=Nc1c(O)nc2c(F)c(Cl)c(F)cc2c1O | 910 | 0.04
17 | O=Nc1c(O)nc2c(F)c(F)c(F)c(F)c2c1O | 3300 | -0.52
18 | O=[N+]([O-])c1c(OCCCc2ccccc2)c(F)cc2nc(O)c(O)nc12 | 4000 | -0.6
19 | Oc1nc2cnccc2c(O)c1-c1cccc(Oc2ccccc2)c1 | 5400 | -0.73

Row | SMILES | IC50 [1] [nM] | Log 1/IC50 [2]
20 | Oc1nc2cc(Cl)cnc2c(O)c1-c1cccs1 | 9800 | -0.99
21 | O=Nc1c(O)nc2ccccc2c1O | 1400 | -0.15
22 | Oc1nc2cc(Cl)cnc2c(O)c1-c1ccccc1Cl | 24000 | -1.38
23 | O=[N+]([O-])c1c(O)nc2c(F)c(F)c(F)c(F)c2c1O | > 100000 | -2
24 | Oc1nc2ccncc2c(O)c1-c1cccc(Oc2ccccc2)c1 | 20000 | -1.3
25 | O=[N+]([O-])c1cccc(-c2c(O)nc3cc(Cl)cnc3c2O)c1 | 7400 | -0.87
26 | Oc1nc2cc(Cl)cnc2c(O)c1-c1cccc(Oc2ccccc2)c1 | 110 | 0.96
27 | O=[N+]([O-])c1c(O)nc2c(Cl)c(Cl)c(Cl)cc2c1O | > 100000 | -2
28 | O=[N+]([O-])c1c(O)nc2c(Cl)cccc2c1O | > 100000 | -2
29 | O=[N+]([O-])c1c(O)nc2ccccc2c1O | 34000 | -1.53
30 | Oc1nc2ncc(Cl)cc2c(O)c1-c1ccccc1 | > 100000 | -2
31 | Oc1nc2cc(Cl)cnc2c(O)c1Oc1cccc(-c2ccccc2)c1 | 23 | 1.64
32 | Oc1nc2cc(Cl)cnc2c(O)c1-c1ccccc1 | 3300 | -0.52
33 | Oc1nc2c(F)c(F)c(F)c(F)c2nc1O | 730 | 0.14
34 | Oc1nc2cc(Cl)cnc2c(O)c1-c1cccc(Cl)c1 | 3000 | -0.48
35 | Oc1nc2ncccc2c(O)c1-c1cccc(Oc2ccccc2)c1 | 31000 | -1.49
36 | O=Nc1c(O)nc2c(Cl)cccc2c1O | > 100000 | -2
37 | O=[N+]([O-])c1c(O)nc2cc(Cl)c(Cl)c(Cl)c2c1O | 220 | 0.66
38 | Oc1nc2cc(Cl)cnc2c(O)c1-c1ccc(Cl)cc1 | 13000 | -1.11

Further lines, results first:

Row | IC50 [1] [nM] | Log 1/IC50 [2] | SMILES
39 | 1900 | -0.28 | COc1c(F)cc2nc(O)c(O)nc2c1[N+](=O)[O-]
40 | 82 | 1.09 | CCc1cc2nc(O)c(O)nc2c([N+](=O)[O-])c1Br
41 | 3400 | -0.53 | O=Nc1c(O)nc2ccc(Cl)cc2c1O
42 | 29 | 1.54 | Cc1cc2nc(O)c(O)nc2c([N+](=O)[O-])c1C
43 | 16000 | -1.2 | Oc1nc2cc3ccccc3cc2nc1O
44 | 4300 | -0.63 | CCCCOc1c(F)cc2nc(O)c(O)nc2c1[N+](=O)[O-]
45 | 30 | 1.53 | Oc1nc2cc(Cl)c(Cl)c(Cl)c2nc1O
46 | > 100000 | -2 | Oc1nc2cc3c(cc2nc1O)OCO3
47 | 53000 | -1.72 | COc1cc2nc(O)c(O)nc2c(OC(C)=O)c1OC
48 | 780 | 0.11 | Cc1cc2nc(O)c(O)nc2cc1Cl
49 | 9800 | -0.99 | Oc1nc2ccccc2nc1O
50 | 95 | 1.02 | Cc1c(F)cc2nc(O)c(O)nc2c1[N+](=O)[O-]
51 | 130 | 0.89 | CCc1c(Cl)cc2nc(O)c(O)nc2c1[N+](=O)[O-]
52 | 3600 | -0.56 | CCOc1c(F)cc2nc(O)c(O)nc2c1[N+](=O)[O-]
53 | 290 | 0.54 | Cc1cc(C)c2c(O)c([N+](=O)[O-])c(O)nc2c1
54 | 1800 | -0.26 | CCc1cc2nc(O)c(O)nc2cc1CC
55 | 630 | 0.2 | Oc1nc2cc(F)c(Cl)c(F)c2nc1O
56 | 130 | 0.89 | Oc1nc2cc(Cl)c(Cl)cc2nc1O [2,3-DIHYDROXY-6,7-DICHLOROQUINOXALINE]
57 | 160 | 0.8 | CCc1cc2nc(O)c(O)nc2c([N+](=O)[O-])c1CC
58 | 150 | 0.82 | Cc1c(Cl)cc2nc(O)c(O)nc2c1N
59 | 8.7 | 2.06 | Cc1c(Br)cc2nc(O)c(O)nc2c1[N+](=O)[O-]
60 | 33 | 1.48 | O=Nc1c(O)nc2cc(Cl)cc(Cl)c2c1O
61 | 4.7 | 2.33 | Cc1c(Cl)cc2nc(O)c(O)nc2c1[N+](=O)[O-]
62 | > 100000 | -2 | Oc1cc2nc(O)c(O)nc2cc1O

Row | IC50 [1] [nM] | Log 1/IC50 [2] | SMILES
63 | 1000 | 0 | COc1cc2nc(O)c(O)nc2cc1Br
64 | 9300 | -0.97 | Cc1cc([N+](=O)[O-])c2nc(O)c(O)nc2c1
65 | 1400 | -0.15 | CCc1cc2nc(O)c(O)nc2cc1Cl
66 | 53 | 1.28 | O=Nc1c(O)nc2cc(Cl)ccc2c1O
67 | 1800 | -0.25 | Oc1nc2ccc(Cl)cc2nc1O
68 | 29 | 1.54 | CCc1cc2nc(O)c(O)nc2c([N+](=O)[O-])c1Cl
69 | 2800 | -0.45 | N#Cc1cc([N+](=O)[O-])c2nc(O)c(O)nc2c1
70 | 17000 | -1.23 | COc1cc2nc(O)c(O)nc2c(O)c1OC
71 | 1800 | -0.25 | Cc1cccc(-c2c(O)nc3cc(Cl)cnc3c2O)c1
72 | 150 | 0.82 | COc1c(Cl)cc2nc(O)c(O)nc2c1[N+](=O)[O-]
73 | 3300 | -0.52 | Cc1cc2nc(O)c(O)nc2cc1C
74 | 17000 | -1.23 | COc1cc2nc(O)c(O)nc2cc1OC
75 | 640 | 0.19 | CCSc1c(Cl)cc2nc(O)c(O)nc2c1[N+](=O)[O-]
76 | 280 | 0.55 | Oc1nc2cc(Cl)cc(Cl)c2nc1O
77 | 15000 | -1.17 | Oc1nc2cc3c(cc2nc1O)CCC3
78 | 12 | 1.92 | O=Nc1c(O)nc2cc(Cl)c(Cl)cc2c1O
79 | 11000 | -1.04 | Nc1c(F)cc2nc(O)c(O)nc2c1[N+](=O)[O-]
80 | 45 | 1.35 | Cc1cc2nc(O)c(O)nc2c([N+](=O)[O-])c1Cl
81 | 64 | 1.19 | COc1c(Br)cc2nc(O)c(O)nc2c1[N+](=O)[O-]
82 | 2900 | -0.46 | COc1cccc(-c2c(O)nc3cc(Cl)cnc3c2O)c1
83 | 73 | 1.14 | Cc1c(C#N)cc2nc(O)c(O)nc2c1[N+](=O)[O-]
84 | 2100 | -0.32 | Cc1cc(C)c2nc(O)c(O)nc2c1
85 | 37 | 1.43 | Cc1cc(C)c2c(O)c(N=O)c(O)nc2c1
